Measured values published in ChEMBL document CHEMBL5046255, “Design and synthesis of dual inhibitors targeting snail and histone deacetylase for the treatment of solid tumour cancer” (Eur J Med Chem, 2022).
pIC50, pKd: −log10 of the molar value.

What was measured:
Histone deacetylase 1 = Histone deacetylase 1 (Homo sapiens, UniProt Q13547); assay: Inhibition of HDAC1 (unknown origin) using p53 (379 to 382 residues) (RHKK(Ac-AMC) as fluorogenic substrate incubated for 1 hrs by fluorescence based assay
[1] = Binding affinity to SNAI1 (unknown origin) assessed as dissociation constant; design: species or system Homo sapiens
K562 = assay: Antiproliferative activity against human K562 cells assessed as growth inhibition incubated for 72 hrs by luminescence assay; assay type: functional
MOLT-4 = assay: Antiproliferative activity against human MOLT-4 cells assessed as growth inhibition incubated for 72 hrs by luminescence assay; assay type: functional
RPMI-8226 = assay: Antiproliferative activity against human RPMI-8226 cells assessed as growth inhibition incubated for 72 hrs by luminescence assay; assay type: functional
SR = assay: Antiproliferative activity against human SR cells assessed as growth inhibition incubated for 72 hrs by luminescence assay; assay type: functional
NCI-H322M = assay: Antiproliferative activity against human NCI-H322M cells assessed as growth inhibition incubated for 72 hrs by luminescence assay; assay type: functional
HCC 2998 = assay: Antiproliferative activity against human HCC 2998 cells assessed as growth inhibition incubated for 72 hrs by luminescence assay; assay type: functional
KM12 = assay: Antiproliferative activity against human KM12 cells assessed as growth inhibition incubated for 72 hrs by luminescence assay; assay type: functional
SF-539 = assay: Antiproliferative activity against human SF-539 cells assessed as growth inhibition incubated for 72 hrs by luminescence assay; assay type: functional
SNB-19 = assay: Antiproliferative activity against human SNB-19 cells assessed as growth inhibition incubated for 72 hrs by luminescence assay; assay type: functional
U-251 = assay: Antiproliferative activity against human U-251 cells assessed as growth inhibition incubated for 72 hrs by luminescence assay; assay type: functional
DU-145 = assay: Antiproliferative activity against human DU-145 cells assessed as growth inhibition incubated for 72 hrs by luminescence assay; assay type: functional
Malme-3M = assay: Antiproliferative activity against human Malme-3M cells assessed as growth inhibition incubated for 72 hrs by luminescence assay; assay type: functional
M14 = assay: Antiproliferative activity against human M14 cells assessed as growth inhibition incubated for 72 hrs by luminescence assay; assay type: functional
MDA-MB-435 = assay: Antiproliferative activity against human MDA-MB-435 cells assessed as growth inhibition incubated for 72 hrs by luminescence assay; assay type: functional
SK-MEL-2 = assay: Antiproliferative activity against human SK-MEL-2 cells assessed as growth inhibition incubated for 72 hrs by luminescence assay; assay type: functional
OVCAR-3 = assay: Antiproliferative activity against human OVCAR-3 cells assessed as growth inhibition incubated for 72 hrs by luminescence assay; assay type: functional
OVCAR-4 = assay: Antiproliferative activity against human OVCAR-4 cells assessed as growth inhibition incubated for 72 hrs by luminescence assay; assay type: functional
OVCAR-5 = assay: Antiproliferative activity against human OVCAR-5 cells assessed as growth inhibition incubated for 72 hrs by luminescence assay; assay type: functional
NCI/ADR-RES = assay: Antiproliferative activity against human NCI/ADR-RES cells assessed as growth inhibition incubated for 72 hrs by luminescence assay; assay type: functional
SK-OV-3 = assay: Antiproliferative activity against human SK-OV-3 cells assessed as growth inhibition incubated for 72 hrs by luminescence assay; assay type: functional
MCF7 = assay: Antiproliferative activity against human MCF7 cells assessed as growth inhibition incubated for 72 hrs by luminescence assay; assay type: functional
MDA-MB-231 = assay: Antiproliferative activity against human MDA-MB-231 cells assessed as growth inhibition incubated for 72 hrs by luminescence assay; assay type: functional
Hs-578T = assay: Antiproliferative activity against human Hs-578T cells assessed as growth inhibition incubated for 72 hrs by luminescence assay; assay type: functional
BT-549 = assay: Antiproliferative activity against human BT-549 cells assessed as growth inhibition incubated for 72 hrs by luminescence assay; assay type: functional
T47D = assay: Antiproliferative activity against human T47D cells assessed as growth inhibition incubated for 72 hrs by luminescence assay; assay type: functional
MDA-MB-468 = assay: Antiproliferative activity against human MDA-MB-468 cells assessed as growth inhibition incubated for 72 hrs by luminescence assay; assay type: functional
A498 = assay: Antiproliferative activity against human A498 cells assessed as growth inhibition incubated for 72 hrs by luminescence assay; assay type: functional
TK-10 = assay: Antiproliferative activity against human TK-10 cells assessed as growth inhibition incubated for 72 hrs by luminescence assay; assay type: functional
ACHN = assay: Antiproliferative activity against human ACHN cells assessed as growth inhibition incubated for 72 hrs by luminescence assay; assay type: functional
RXF 393 = assay: Antiproliferative activity against human RXF 393 cells assessed as growth inhibition incubated for 72 hrs by luminescence assay; assay type: functional
Histone deacetylase 4 = Histone deacetylase 4 (Homo sapiens, UniProt P56524); assay: Inhibition of HDAC4 (unknown origin) using Boc-Lys(TFA)-AMC as fluorogenic substrate incubated for 30 mins by fluorescence based assay
Histone deacetylase 11 = Histone deacetylase 11 (Homo sapiens, UniProt Q96DB2); assay: Inhibition of HDAC11 (unknown origin) using Boc-Lys(TFA)-AMC as fluorogenic substrate incubated for 30 mins by fluorescence based assay
[2] = Metabolic stability in monkey liver microsomes assessed as half life incubated for 10 mins by LC-MS/MS analysis; assay type: ADME, Macaca mulatta, Microsome; conditions: rhesus monkey
[3] = Metabolic stability in rat liver microsomes assessed as half life incubated for 10 mins by LC-MS/MS analysis; assay type: ADME, Microsome
[4] = Metabolic stability in human liver microsomes assessed as intrinsic clearance incubated for 10 mins by LC-MS/MS analysis; assay type: ADME, Microsome; conditions: read-out: CLH
[5] = Metabolic stability in monkey liver microsomes assessed as intrinsic clearance incubated for 10 mins by LC-MS/MS analysis; assay type: ADME, Macaca mulatta, Microsome; conditions: rhesus monkey, read-out: CLH
[6] = Metabolic stability in rat liver microsomes assessed as intrinsic clearance incubated for 10 mins by LC-MS/MS analysis; assay type: ADME, Microsome; conditions: read-out: CLH
[7] = Metabolic stability in monkey plasma assessed as half life at 100 uM measured upto 120 mins by LC-MS/MS analysis; assay type: ADME, cell-free, Macaca mulatta; conditions: rhesus monkey
[8] = Metabolic stability in monkey plasma assessed as parent compound remaining at 100 uM measured after 2 hrs by LC-MS/MS analysis; assay type: ADME, cell-free, Macaca mulatta; conditions: rhesus monkey, read-out: Stability
[9] = Metabolic stability in dog plasma assessed as parent compound remaining at 100 uM measured after 2 hrs by LC-MS/MS analysis; assay type: ADME, cell-free, Canis lupus familiaris; conditions: read-out: Stability
[10] = Cmax in Sprague-Dawley rat at 1 mg/kg, iv measured up to 24 hrs by LC-MS/MS analysis; assay type: ADME, organism-based; design: route intravenous, dose 1 mg/kg, time <=24; conditions: in vivo
[11] = Cmax in Sprague-Dawley rat at 10 mg/kg, po measured up to 24 hrs by LC-MS/MS analysis; assay type: ADME, organism-based; design: route oral, dose 10 mg/kg, time <=24; conditions: in vivo
[12] = Clearance in Sprague-Dawley rat at 1 mg/kg, iv measured up to 24 hrs by LC-MS/MS analysis; assay type: ADME, organism-based; conditions: in vivo
[13] = Volume of distribution at steady state in Sprague-Dawley rat at 1 mg/kg, iv measured up to 24 hrs by LC-MS/MS analysis; assay type: ADME, organism-based; conditions: in vivo, read-out: Vdss

Sequence of Histone deacetylase 11 (Q96DB2 whole entry): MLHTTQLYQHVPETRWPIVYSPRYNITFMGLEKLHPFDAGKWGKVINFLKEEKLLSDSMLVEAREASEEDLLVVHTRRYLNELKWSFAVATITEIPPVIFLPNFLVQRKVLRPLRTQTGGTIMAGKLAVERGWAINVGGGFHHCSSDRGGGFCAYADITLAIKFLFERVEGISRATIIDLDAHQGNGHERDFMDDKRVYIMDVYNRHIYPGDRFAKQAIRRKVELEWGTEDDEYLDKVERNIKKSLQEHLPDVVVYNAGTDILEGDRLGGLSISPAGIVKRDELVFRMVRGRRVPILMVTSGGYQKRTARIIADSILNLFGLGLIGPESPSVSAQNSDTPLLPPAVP
Sequence of Histone deacetylase 4 (P56524 whole entry): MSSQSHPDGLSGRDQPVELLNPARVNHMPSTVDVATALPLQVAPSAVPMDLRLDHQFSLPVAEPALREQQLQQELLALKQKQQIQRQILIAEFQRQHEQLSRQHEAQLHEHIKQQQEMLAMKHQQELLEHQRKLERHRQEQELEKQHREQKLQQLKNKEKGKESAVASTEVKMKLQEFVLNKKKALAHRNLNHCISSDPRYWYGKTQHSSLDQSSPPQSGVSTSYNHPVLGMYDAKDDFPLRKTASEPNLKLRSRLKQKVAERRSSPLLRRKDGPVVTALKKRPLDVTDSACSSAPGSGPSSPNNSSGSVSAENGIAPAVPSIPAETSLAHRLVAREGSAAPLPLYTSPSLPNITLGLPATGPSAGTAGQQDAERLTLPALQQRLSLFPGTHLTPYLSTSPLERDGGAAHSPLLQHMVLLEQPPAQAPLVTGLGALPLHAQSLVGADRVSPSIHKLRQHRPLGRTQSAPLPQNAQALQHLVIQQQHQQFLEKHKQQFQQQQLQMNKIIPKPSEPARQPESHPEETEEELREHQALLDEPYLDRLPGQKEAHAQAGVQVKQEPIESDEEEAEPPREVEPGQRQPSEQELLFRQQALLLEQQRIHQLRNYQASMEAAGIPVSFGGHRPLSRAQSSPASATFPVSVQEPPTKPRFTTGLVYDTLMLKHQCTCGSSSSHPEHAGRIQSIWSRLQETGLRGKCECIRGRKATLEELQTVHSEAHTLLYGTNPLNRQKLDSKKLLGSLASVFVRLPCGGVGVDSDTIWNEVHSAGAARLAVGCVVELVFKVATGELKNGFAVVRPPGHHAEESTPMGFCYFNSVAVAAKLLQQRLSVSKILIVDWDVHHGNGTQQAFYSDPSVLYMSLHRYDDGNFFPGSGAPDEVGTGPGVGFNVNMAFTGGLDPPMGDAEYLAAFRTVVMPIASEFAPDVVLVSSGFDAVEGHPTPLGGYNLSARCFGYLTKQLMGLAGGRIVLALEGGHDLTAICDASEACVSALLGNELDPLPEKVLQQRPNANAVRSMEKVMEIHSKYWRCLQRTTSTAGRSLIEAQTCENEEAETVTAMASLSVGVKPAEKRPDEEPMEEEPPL
Sequence of Histone deacetylase 1 (Q13547 whole entry, the tested form may be a part): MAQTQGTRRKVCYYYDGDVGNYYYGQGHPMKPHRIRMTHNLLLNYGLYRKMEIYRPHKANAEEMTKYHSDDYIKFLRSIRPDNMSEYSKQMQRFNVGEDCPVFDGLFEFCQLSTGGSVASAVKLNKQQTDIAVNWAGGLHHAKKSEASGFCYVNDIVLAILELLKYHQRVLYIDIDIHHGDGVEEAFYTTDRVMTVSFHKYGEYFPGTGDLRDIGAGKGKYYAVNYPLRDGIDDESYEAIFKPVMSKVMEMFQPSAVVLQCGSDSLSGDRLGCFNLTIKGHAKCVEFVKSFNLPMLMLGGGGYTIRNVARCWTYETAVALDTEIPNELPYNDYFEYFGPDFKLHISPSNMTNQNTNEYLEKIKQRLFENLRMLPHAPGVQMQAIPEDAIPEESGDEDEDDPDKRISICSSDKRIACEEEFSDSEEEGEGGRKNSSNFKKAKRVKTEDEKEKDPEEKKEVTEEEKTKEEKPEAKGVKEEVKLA

Cc1cc(Nc2nc(SCc3ccc(C(=O)Nc4ccc(F)cc4N)cc3)nn3cccc23)n[nH]1
pIC50 (Histone deacetylase 1): 6.39 | pKd [1]: 6.74 | GI50 (K562): 48.7 nM | GI50 (MOLT-4): 508 nM | GI50 (RPMI-8226): 514 nM | GI50 (SR): 68 nM | GI50 (NCI-H322M): 1010 nM | GI50 (HCC 2998): 677 nM | GI50 (KM12): 284 nM | GI50 (SF-539): 282 nM | GI50 (SNB-19): 536 nM | GI50 (U-251): 343 nM | GI50 (DU-145): 461 nM | GI50 (Malme-3M): 1830 nM | GI50 (M14): 289 nM | GI50 (MDA-MB-435): 36.1 nM | GI50 (SK-MEL-2): 617 nM | GI50 (OVCAR-3): 202 nM | GI50 (OVCAR-4): 1660 nM | GI50 (OVCAR-5): 657 nM | GI50 (NCI/ADR-RES): 1980 nM | GI50 (SK-OV-3): 339 nM | GI50 (MCF7): 51.8 nM | GI50 (MDA-MB-231): 854 nM | GI50 (Hs-578T): 429 nM | GI50 (BT-549): 296 nM | GI50 (T47D): 1120 nM | GI50 (MDA-MB-468): 432 nM | GI50 (A498): 623 nM | GI50 (TK-10): 1210 nM | GI50 (ACHN): 1240 nM | GI50 (RXF 393): 301 nM | pIC50 (Histone deacetylase 4): < 5.00 | pIC50 (Histone deacetylase 11): < 5.00 | half-life [2]: 27.8 min | half-life [3]: 12.6 min | microsomal CLint [4]: 20.9 µL/min/mg | microsomal CLint [5]: 50.3 µL/min/mg | microsomal CLint [6]: 110 µL/min/mg | half-life at 100 µM [7]: 330 min | remaining at 2 h, 100 µM [8]: 82.4% | remaining at 2 h, 100 µM [9]: 85.7% | Cmax [10]: 144 ng/mL | Cmax [11]: 6.61 ng/mL | clearance [12]: 24.2 mL/min/kg | Vd [13]: 1.06 L/kg
